One test concerns the target rat alpha-glucosidase. The test can be described thus: Inhibitory activity on rat alpha-glucosidase (rat intestinal acetone powder enzyme, maltose substrate, glucose read-out). To be noted: mean ± SD. Format: biochemical. The procedure: Inhibitory activity on rat alpha-glucosidase was measured as described previously with some modification. Rat alpha-glucosidase protein solution was extracted from rat intestinal acetone powders using the ultrasonication method. Briefly, 100 mg of intestinal acetone powders from rats were added to 1.0 mL of a 0.1 M maleic acid/disodium maleate buffer solution at pH 6.0. Then, one cycle of 30 s of ultrasonication and 30 s of break were repeated 6 times in ice-cold water, and the residue was separated by centrifugation (3000 rpm, 30 min, 4 °C). The supernatant was collected as the enzyme solution for experiments. Then, 50 µL of 4% maltose (w/v) and 25 µL of sample solution (GTEs or catechins) were added to a microtube and preincubated at 37 °C for 3 min. After that, 25 µL of the above enzyme solution was added and incubated at 37 °C for 30 min. Consequently, 400 µL of ultrapure water was added and inactivated at 100 °C for 4 min. After 100 µL of the inactivated reaction solution and 150 µL of color reagent (LabAssay™ Glucose kit) were mixed, the glucose contents (mg/dL) were measured at 505 nm through the spectrometer (Infinite 200 Pro MPlex, Tecan Ltd., Männedorf, Switzerland) according to the manufacturer’s instructions with the standard glucose curve. […] The inhibitory activity of each sample was calculated as follows:Inhibitory activity (%) = 100 − {(Cs − Csb)/(Cc − Cb)} × 100 • Cc: Glucose content of the negative control; • Cb: Glucose content of the blank; • Cs: Glucose content of the sample; • Csb: Glucose content of the sample blank.

Another test addresses T1, human alpha-glucosidase (Homo sapiens, UniProt P14410).
T1 construct: cultured for 14 days to differentiate into small intestinal epithelial-like cells; host or cells: differentiated Caco-2 cells
The test can be described thus: Inhibitory activity on human alpha-glucosidase in differentiated Caco-2 cells (maltose substrate). Particulars: mean ± SD. Type of test: cell-based. The method, then:
Inhibitory activity on human alpha-glucosidase was measured using differentiated Caco-2 cells as described previously with some modification. Briefly, Caco-2 cells were purchased from Riken Bioresource Research Center (Tsukuba, Japan) and cultured in Minimal Essential Medium (MEM) supplemented with 20% fetal bovine serum, 1% penicillin-streptomycin-glutamine, and 1% non-essential amino acids at 37 °C in an atmosphere of 5% CO2. After passaging, cells (2.0 × 10^4 cells/well) were seeded in 48-well plates and cultured for 14 days to differentiate into small intestinal epithelial-like cells. After 14 days, cells were washed twice with PBS, and 150 µL of sample solution at each concentration as well as 150 µL of 3 mM maltose were added. Each sample and maltose solution were dissolved in PBS. The cells were further incubated for 2 h at 37 °C in an atmosphere of 5% CO2. Then, 100 µL of cell culture supernatant was mixed with 150 µL of color reagent and measured at 505 nm through the spectrometer (Infinite 200 Pro MPlex, Tecan Ltd., Männedorf, Switzerland). The inhibitory activity of the sample was calculated in the same way as in the rat alpha-glucosidase experiment.

T1 sequence (P14410 whole entry): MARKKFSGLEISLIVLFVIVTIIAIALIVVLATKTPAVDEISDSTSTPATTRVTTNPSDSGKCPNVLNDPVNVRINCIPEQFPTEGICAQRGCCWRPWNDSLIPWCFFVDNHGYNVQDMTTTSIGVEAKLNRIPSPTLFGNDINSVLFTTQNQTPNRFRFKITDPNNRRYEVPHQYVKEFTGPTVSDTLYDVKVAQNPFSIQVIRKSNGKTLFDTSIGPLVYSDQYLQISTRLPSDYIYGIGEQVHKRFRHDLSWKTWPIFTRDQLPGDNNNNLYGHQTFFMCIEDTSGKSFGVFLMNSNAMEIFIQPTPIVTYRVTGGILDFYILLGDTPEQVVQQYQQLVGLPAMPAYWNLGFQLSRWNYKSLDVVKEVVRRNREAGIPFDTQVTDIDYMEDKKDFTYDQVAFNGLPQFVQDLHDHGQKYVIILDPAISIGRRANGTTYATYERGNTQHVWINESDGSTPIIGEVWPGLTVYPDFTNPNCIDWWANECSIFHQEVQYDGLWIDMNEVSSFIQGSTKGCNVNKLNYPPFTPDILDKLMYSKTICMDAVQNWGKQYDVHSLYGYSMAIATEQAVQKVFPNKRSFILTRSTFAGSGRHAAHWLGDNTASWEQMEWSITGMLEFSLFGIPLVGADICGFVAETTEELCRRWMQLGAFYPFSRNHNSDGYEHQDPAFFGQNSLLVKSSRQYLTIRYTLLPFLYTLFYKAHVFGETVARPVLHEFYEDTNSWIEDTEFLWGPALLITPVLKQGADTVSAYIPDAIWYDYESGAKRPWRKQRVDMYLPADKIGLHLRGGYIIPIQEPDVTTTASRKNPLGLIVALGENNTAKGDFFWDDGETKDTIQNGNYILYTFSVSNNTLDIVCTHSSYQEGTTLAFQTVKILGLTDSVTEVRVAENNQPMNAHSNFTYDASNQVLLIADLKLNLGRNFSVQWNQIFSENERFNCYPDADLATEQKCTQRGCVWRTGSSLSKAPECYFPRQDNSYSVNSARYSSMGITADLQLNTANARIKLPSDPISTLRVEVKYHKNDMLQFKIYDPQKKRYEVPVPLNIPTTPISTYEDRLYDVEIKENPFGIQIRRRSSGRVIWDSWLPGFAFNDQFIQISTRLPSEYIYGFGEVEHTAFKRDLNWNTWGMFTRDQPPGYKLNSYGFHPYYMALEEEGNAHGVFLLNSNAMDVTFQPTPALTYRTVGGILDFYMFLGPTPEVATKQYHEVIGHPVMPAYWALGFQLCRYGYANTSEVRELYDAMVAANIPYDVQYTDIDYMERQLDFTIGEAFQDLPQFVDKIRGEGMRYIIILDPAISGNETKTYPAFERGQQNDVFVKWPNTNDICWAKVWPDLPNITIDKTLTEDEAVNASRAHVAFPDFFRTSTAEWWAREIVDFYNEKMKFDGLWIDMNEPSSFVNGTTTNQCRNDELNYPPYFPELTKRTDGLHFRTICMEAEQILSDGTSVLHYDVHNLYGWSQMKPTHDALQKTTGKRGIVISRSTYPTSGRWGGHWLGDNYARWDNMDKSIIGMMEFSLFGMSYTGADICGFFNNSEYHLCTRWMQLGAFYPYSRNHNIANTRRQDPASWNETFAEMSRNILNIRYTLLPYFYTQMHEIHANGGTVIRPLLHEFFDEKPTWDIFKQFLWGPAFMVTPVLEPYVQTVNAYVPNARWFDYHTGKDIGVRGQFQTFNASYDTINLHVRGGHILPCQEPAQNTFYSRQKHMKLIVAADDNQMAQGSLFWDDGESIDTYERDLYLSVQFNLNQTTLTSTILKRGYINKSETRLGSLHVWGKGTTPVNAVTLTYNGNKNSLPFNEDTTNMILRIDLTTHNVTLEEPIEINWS

By IC50 is commonly meant the concentration that gives 50% inhibition. For `O=C(O)c1cc(O)c(O)c(O)c1` [GA, gallic acid, reference compound], the IC50 at rat alpha-glucosidase came out at 1030 ± 64.5 µM.

In the case of `O=C(O[C@@H]1Cc2c(O)cc(O)cc2O[C@H]1c1ccc(O)c(O)c1)c1cc(O)c(O)c(O)c1` [Cg, (−)-catechin-3-gallate], on rat alpha-glucosidase, the half-inhibitory concentration (IC50) amounted to 112 ± 7.8 µM.

Turning to `Oc1cc(O)c2c(c1)O[C@H](c1ccc(O)c(O)c1)[C@@H](O)C2` [(+)C, (+)-catechin], the 50% inhibitory concentration (IC50) on rat alpha-glucosidase came to 1200 ± 79.6 µM.

As to `Oc1cc(O)c2c(c1)O[C@H](c1ccc(O)c(O)c1)[C@H](O)C2` [EC, (−)-epicatechin], the concentration for half-maximal inhibition (IC50) at human alpha-glucosidase is 134 ± 2.2 µM; on rat alpha-glucosidase, 675 ± 15.7 µM.

`O=C(O[C@@H]1Cc2c(O)cc(O)cc2O[C@H]1c1cc(O)c(O)c(O)c1)c1cc(O)c(O)c(O)c1` [GCg, (−)-gallocatechin-3-gallate]: the IC50 on rat alpha-glucosidase stood at 161 ± 2.4 µM.

`Oc1cc(O)c2c(c1)O[C@H](c1cc(O)c(O)c(O)c1)[C@H](O)C2` [EGC, (−)-epigallocatechin]: the half-inhibitory concentration (IC50) at human alpha-glucosidase amounted to 214 ± 3.8 µM; at rat alpha-glucosidase it was 713 ± 35.3 µM.

For `C[C@H]1O[C@H](O[C@H]2[C@H](O)[C@@H](O)[C@@H](O[C@H]3[C@H](O)[C@@H](O)C(O)O[C@@H]3CO)O[C@@H]2CO)[C@H](O)[C@@H](O)[C@@H]1N[C@H]1C=C(CO)[C@@H](O)[C@H](O)[C@H]1O` (some centres unmarked) [acarbose, reference compound], the half-maximal inhibitory concentration (IC50) on rat alpha-glucosidase was 2.17 ± 0.23 µM.

Consider `O=C(O[C@@H]1Cc2c(O)cc(O)cc2O[C@@H]1c1ccc(O)c(O)c1)c1cc(O)c(O)c(O)c1` [ECg, (−)-epicatechin-3-gallate], for which the figures for the 50% inhibitory concentration (IC50) at human alpha-glucosidase and at rat alpha-glucosidase were 78.4 ± 15.2 µM and 96.9 ± 4.5 µM, respectively.

For `Oc1cc(O)c2c(c1)O[C@@H](c1cc(O)c(O)c(O)c1)[C@H](O)C2` [GC, (−)-gallocatechin], the half-maximal inhibitory concentration (IC50) on rat alpha-glucosidase was determined as 798 ± 26.8 µM.

Turning to `O=C(O[C@@H]1Cc2c(O)cc(O)cc2O[C@@H]1c1cc(O)c(O)c(O)c1)c1cc(O)c(O)c(O)c1` [EGCg, (−)-epigallocatechin-3-gallate], the figures for the IC50 on human alpha-glucosidase and at rat alpha-glucosidase were 90.7 ± 15.8 µM and 46 ± 3.73 µM, respectively.

Source of the values: paper PMC10340592, “Extraction Efficiency and Alpha-Glucosidase Inhibitory Activities of Green Tea Catechins by Different Infusion Methods” (Foods, 2023).
